Measurements reported in paper PMC6005348, “Betahistine Treatment in a Cat Model of Vestibular Pathology: Pharmacokinetic and Pharmacodynamic Approaches” (Frontiers in Neurology, 2018).
Read-outs that look alike come from different tables or passages of the source.

Experiments:
[1] = Plasma pharmacokinetics of betahistine and 2-PAA after oral dosing in UVN cats (LC-MS/MS, non-compartmental analysis); type: in vivo, cat; conditions: for AUC / Cmax / Tmax / half-life: male, plasma, po; for half-life: read-out: Betahistine t1/2 (converted)
Protocol: The experiments were performed on nine adult male UVN cats randomly allocated into three groups of cats. Three groups of three adult male cats received 0.2 mg/kg betahistine (N = 3: cats 1–3), 2 mg/kg betahistine (N = 3: cats 4–6), or 0.2 mg/kg betahistine plus 1 mg/kg selegiline (N = 3: cats 7–9). […] The samples were frozen at −80°C until analysis. Pharmacokinetic parameters of betahistine and its major metabolite 2-PAA were calculated by applying non-compartmental analysis.
Betahistine and its internal standard, betahistine-d3, were extracted by liquid/liquid extraction from plasma under alkaline conditions toward 1-butanol/isooctane, followed by a second liquid/liquid extraction step of acidic 1-butanol/isooctane toward water. Betahistine concentration in plasma was analyzed using a validated LC-MS/MS method. In brief, an API 4000 (Applied Biosystems) mass spectrometer coupled with a Symbiosis HPLC system (Sparks, Emmen, The Netherlands) was employed to analyze betahistine. Extracts (100 μl) were injected into a XTerra RP18 150 ^* 4.6 mm, 3.5 μm column (Waters, Etten-Leur, The Netherlands) and separated at 30°C under isocratic conditions using an aqueous metanol solution containing 0.5 mM ammonium formate as mobile phase. Betahistine was quantified by a tandem mass spectrometer in positive MRM. Parent daughter transition was followed for betahistine (m/z 137 > 94). Betahistine-d3 dihydrochloride was used as internal standard. Pharmacokinetic parameters of betahistine were calculated by applying non-compartmental analysis using the validated PK software WinNonLin, version 5.23 (Pharsight Corporation, Mountain View, CA, USA).
Cmax and tmax were derived directly from the plasma concentration-time curves. Linear trapezoidal rule was used to calculate AUC0-t during the part of the curve with increasing plasma concentrations. For the descending part of the curve, the log-linear trapezoidal rule was used. Calculation of the elimination half-life (t1/2) was evaluated as ln 2/kel, with kel as the slope of the terminal phase of the plasma concentration-time curve.

[2] = test system: histidine decarboxylase (HDC); experiment: Number of HDC immunoreactive neurons in the tuberomammillary nuclei (immunohistochemistry); type: in vivo, cat
Protocol: […] animals were used for the immunohistochemical study to label the histamine synthesizing enzyme: the HDC. This study was performed on the same four groups of cats used for the behavioral investigation (cats 10–22). These lesioned animals (left UVN) were all killed 40 days after vestibular lesion. A supplementary group of intact animals (n = 4: cats 23–26) was used as a negative control group without vestibular lesion.
Cats were deeply anesthetized with ketamine dihydrochloride (20 mg/kg, i.m., Rhône Poulenc Mérieux) and perfused under isoflurane intubation (2%), through the ascending aorta, with 1 L of normal saline solution (0.9%) containing 0.1% heparine, and thereafter with 2 L of ice-cold 0.1 M phosphate buffer (PB, pH 7.4) including 4% paraformaldehyde and 0.2% picric acid.
After removal from the skull, the brain was cut into several blocks and post-fixed overnight at 4°C in the same solution. The blocks were then rinsed and cryoprotected by increasing concentrations (10, 20, and 30%) of sucrose solution in 0.1 M PB for 72 h at 4°C. Blocks containing the TMN were rapidly frozen with CO2 gas, and coronal sections 20 μm thick were cut in a cryostat (Leica, Rueil-Malmaison, France).
Free-floating sections were first incubated three times for 5 min in PBS (phosphate buffer saline 0.1 M), then for 1 h in 10% BSA, and 0.25% Triton X-100. Thereafter, sections were incubated under continuous agitation 24 h at 4°C with a Guinea pig polyclonal anti-HDC antiserum (1:1,000 in PBS containing 2% BSA and 0.25% Triton; Fisher scientific). After several rinses (3 × 5 min in PBS with 2% BSA and 3 × 5 min in PBS with 5% BSA) sections were incubated for 1 h, respectively, in biotinylated rabbit anti-guinea pig IgG (1:200 in PBS containing 2% BSA; from Vector Laboratories, Burlingame, CA). […]
The tuberomammillary nuclei (TMN) of the posterior hypothalamus, the sole structure in the brain containing histaminergic neurons, were identified using Berman's stereotaxic atlas ([38]). […] Serial sections in the TMN of each animal were analyzed, five sections at each of the five rostrocaudal levels examined (A12, A11, A10.2, A9.5, and A8.3) being quantified. The number of HDC immunoreactive neurons was quantified by means of a computer-assisted image analysis (DMLB microscope: Leica Microsystems, Wetzlar, Germany) equipped with a DXM 1200 Nikon high-resolution digital camera (1,024 × 1,024 pixels; Nikon, Tokyo, Japan) interfaced to a PC computer employing image software for capturing and processing the images (Lucia G, Nikon, Champigny-sur-Marne, France). Quantification of the immunolabeled neurons was performed via a gray-level method by adjusting a threshold brightness value, and only cells labeled with a gray value above this threshold were taken into account. Reproducibility was assessed by comparing the same data analyzed independently by two researchers blind to the animals' groups. The specific immunolabeling was quantified in each section as the number of labeled neurons, and was automatically computed and evaluated thereafter as the mean (± SEM) for each side, each cat, and each subgroup of cats. To eliminate quantification problems due to potentially asymmetric slides, data were collected from symmetrical slides only, and symmetry was assessed on the basis of the number of cells stained with cresyl violet on each side. […]

[3] = cats, abstract statement, up to
[4] = 0.2 mg/kg, UVN cats, oral betahistine 0.2 mg/kg alone, day 1
[5] = 2 mg/kg, UVN cats, oral betahistine 2 mg/kg alone, day 1
[6] = 2 mg/kg, UVN cats, oral betahistine 2 mg/kg alone, day 21
[7] = UVN cats, oral betahistine 0.2 mg/kg plus selegiline 1 mg/kg, day 1
[8] = UVN cats, oral betahistine 0.2 mg/kg plus selegiline 1 mg/kg, day 21
[9] = UVN D40, betahistine 2 mg/kg, p < 0.0001

## CNCCc1ccccn1 [Betahistine, betahistine]
[1]; cats higher than human
  Cmax- and AUC-values in cats compared to human: 40–50 times
[1]; [3]
  Increase of betahistine AUC by co administration of selegiline: ≤ 180 fold
  Increase of betahistine Cmax by co administration of selegiline: up to 146 fold
[1]; 0.2 mg/kg, PK/PD table, DAY 2, BH 0.2 mg/kg, read-out: AUC (betahistine)
  AUC: 3.65 ng·h/mL
[1]; 0.2 mg/kg, PK/PD table, DAY 2, BH 0.2 mg/kg, read-out: Cmax (betahistine)
  Cmax: 4.11 ng/mL
[1]; [4]
  Tmax: 0.25 h
  half-life: 1.9 ± 0.7 h
[1]; 0.2 mg/kg, UVN cats, oral betahistine 0.2 mg/kg alone, day 1, read-out: Betahistine AUC
  AUC: 3.7 ± 2.1 ng·h/mL
[1]; 0.2 mg/kg, UVN cats, oral betahistine 0.2 mg/kg alone, day 1, read-out: Betahistine Cmax
  Cmax: 4.1 ± 2.9 ng/mL
[1]; 0.2 mg/kg, UVN cats, oral betahistine 0.2 mg/kg alone, day 21
  Tmax: 2 h
[1]; 0.2 mg/kg, UVN cats, oral betahistine 0.2 mg/kg alone, day 21, n = 2
  half-life: 4 h
[1]; 0.2 mg/kg, UVN cats, oral betahistine 0.2 mg/kg alone, day 21, read-out: Betahistine AUC
  AUC: 1.5 ± 0.6 ng·h/mL
[1]; 0.2 mg/kg, UVN cats, oral betahistine 0.2 mg/kg alone, day 21, read-out: Betahistine Cmax
  Cmax: 0.6 ± 0.4 ng/mL
[1]; 2 mg/kg, PK/PD table, DAY 2, BH 2.0 mg/kg, read-out: AUC (betahistine)
  AUC: 26.7 ng·h/mL
[1]; 2 mg/kg, PK/PD table, DAY 2, BH 2.0 mg/kg, read-out: Cmax (betahistine)
  Cmax: 54 ng/mL
[1]; [5]
  Tmax: 0.25 h
  half-life: 3 ± 2.6 h
[1]; 2 mg/kg, UVN cats, oral betahistine 2 mg/kg alone, day 1, read-out: Betahistine AUC
  AUC: 19.7 ± 5 ng·h/mL
[1]; 2 mg/kg, UVN cats, oral betahistine 2 mg/kg alone, day 1, read-out: Betahistine Cmax
  Cmax: 23.8 ± 11.2 ng/mL
[1]; [6]
  Tmax: 0.5 h
  half-life: 1.6 ± 0.3 h
[1]; 2 mg/kg, UVN cats, oral betahistine 2 mg/kg alone, day 21, read-out: Betahistine AUC
  AUC: 51 ± 42.4 ng·h/mL
[1]; 2 mg/kg, UVN cats, oral betahistine 2 mg/kg alone, day 21, read-out: Betahistine Cmax
  Cmax: 38.9 ± 34.9 ng/mL
[1]; PK/PD table, DAY 2, BH 0.2 mg/kg + Selegiline 1 mg/kg, read-out: AUC (betahistine)
  AUC: 19.7 ng·h/mL
[1]; PK/PD table, DAY 2, BH 0.2 mg/kg + Selegiline 1 mg/kg, read-out: Cmax (betahistine)
  Cmax: 23.8 ng/mL
[1]; [7]
  Tmax: 0.25 h
  half-life: 2.5 ± 0.5 h
[1]; UVN cats, oral betahistine 0.2 mg/kg plus selegiline 1 mg/kg, day 1, read-out: Betahistine AUC
  AUC: 26.7 ± 24.1 ng·h/mL
[1]; [8]
  Tmax: 1 h
  half-life: 1.9 ± 0.4 h
[1]; UVN cats, oral betahistine 0.2 mg/kg plus selegiline 1 mg/kg, day 21, read-out: Betahistine AUC
  AUC: 6.7 ± 5.1 ng·h/mL
[1]; UVN cats, oral betahistine 0.2 mg/kg plus selegiline 1 mg/kg, day 21, read-out: Betahistine Cmax
  Cmax: 13.2 ± 13 ng/mL
[1]; repeated administration, day 21
  Betahistine Cmax with versus without selegiline co-administration: 65 fold
[1]; single administration, day 1
  Increase of betahistine AUC0−7h by selegiline 1 mg/kg: ~ 5 fold
  Increase of betahistine Cmax by selegiline 1 mg/kg: ~ 5 fold
[2]; UVN D40, betahistine 0.2 mg/kg without selegiline, UVN untreated 151.78 ± 3.29
  Number of HDC immunoreactive neurons, ipsilateral TMN: 151.3 ± 1.51
[2]; UVN D40, betahistine 0.2 mg/kg without selegiline, UVN untreated 152.4 ± 3.63
  Number of HDC immunoreactive neurons, contralateral TMN: 151.1 ± 1.63
[2]; [9]
  Number of HDC immunoreactive neurons, contralateral TMN: 191.68 ± 2.04
  Number of HDC immunoreactive neurons, ipsilateral TMN: 190.85 ± 1.58
[2]; lesion and betahistine 2 mg/kg, 40 days post-lesion, compared to UVN untreated cats as worded
  Number of HDC immunopositive neurons on both sides, on average: 210%
